Measurements: PubChem BioAssay (NCI)
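Assay format: 96-well plates, 48-hour exposure. Abbreviation: GI50, concentration required for 50% inhibition of growth. At the TGI there is no net growth.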

Columns and labels:
Experiment in all cases: NCI tumour cell line growth inhibition, 48 h
UO-31 renal = test system: UO-31 renal
DU-145 prostate = test system: DU-145 prostate
SK-MEL-5 melanoma = test system: SK-MEL-5 melanoma
BT-549 breast = test system: BT-549 breast
CCRF-CEM leukemia = test system: CCRF-CEM leukemia
M14 melanoma = test system: M14 melanoma
NCI-H23 lung = test system: NCI-H23 lung
HT29 colon = test system: HT29 colon
A498 renal = test system: A498 renal
TK-10 renal = test system: TK-10 renal
SNB-75 CNS = test system: SNB-75 CNS
MALME-3M melanoma = test system: MALME-3M melanoma
MOLT-4 leukemia = test system: MOLT-4 leukemia
SW-620 colon = test system: SW-620 colon
SNB-19 CNS = test system: SNB-19 CNS
RXF 393 renal = test system: RXF 393 renal
UACC-257 melanoma = test system: UACC-257 melanoma
RPMI-8226 leukemia = test system: RPMI-8226 leukemia
T-47D breast = test system: T-47D breast
OVCAR-8 ovarian = test system: OVCAR-8 ovarian
A549 NSCLC = test system: A549 NSCLC
LOX IMVI melanoma = test system: LOX IMVI melanoma
HS 578T breast = test system: HS 578T breast
NCI-H522 lung = test system: NCI-H522 lung
HCT-15 colon = test system: HCT-15 colon
HCC-2998 colon = test system: HCC-2998 colon
SN12C renal = test system: SN12C renal
NCI/ADR-RES ovarian = test system: NCI/ADR-RES ovarian
OVCAR-5 ovarian = test system: OVCAR-5 ovarian
IGROV1 ovarian = test system: IGROV1 ovarian
HOP-92 NSCLC = test system: HOP-92 NSCLC
EKVX NSCLC = test system: EKVX NSCLC
PC-3 prostate = test system: PC-3 prostate
KM12 colon = test system: KM12 colon
NCI-H460 lung = test system: NCI-H460 lung
CAKI-1 renal = test system: CAKI-1 renal
HL-60(TB) leukemia = test system: HL-60(TB) leukemia
SF-539 CNS = test system: SF-539 CNS
MCF7 breast = test system: MCF7 breast
K-562 leukemia = test system: K-562 leukemia
UACC-62 melanoma = test system: UACC-62 melanoma
SR leukemia = test system: SR leukemia
HOP-62 NSCLC = test system: HOP-62 NSCLC
MDA-MB-231 breast = test system: MDA-MB-231 breast
SK-OV-3 ovarian = test system: SK-OV-3 ovarian
ACHN renal = test system: ACHN renal
HCT-116 colon = test system: HCT-116 colon
SF-268 CNS = test system: SF-268 CNS
SK-MEL-2 melanoma = test system: SK-MEL-2 melanoma
OVCAR-3 ovarian = test system: OVCAR-3 ovarian
786-0 renal = test system: 786-0 renal
SF-295 CNS = test system: SF-295 CNS
U251 CNS = test system: U251 CNS
COLO 205 colon = test system: COLO 205 colon
SK-MEL-28 melanoma = test system: SK-MEL-28 melanoma
OVCAR-4 ovarian = test system: OVCAR-4 ovarian
MDA-MB-435 = test system: MDA-MB-435
NCI-H226 lung = test system: NCI-H226 lung

In the case of CN1CCN(Cc2ccc(NC(=O)c3cncc(C#Cc4cnc5ccc(N)nn45)c3)cc2C(F)(F)F)CC1, the GI50 (UO-31 renal) was 5.05 µM, the TGI (UO-31 renal) was 12.9 µM and the GI50 (DU-145 prostate) was 1.39 µM. The TGI (DU-145 prostate) was 5.73 µM, the GI50 (SK-MEL-5 melanoma) was 3.73 µM and the TGI (SK-MEL-5 melanoma) was 10.3 µM. It also gave a GI50 (BT-549 breast) of 2.07 µM, a TGI (BT-549 breast) of 6.05 µM and a GI50 (CCRF-CEM leukemia) of 0.24 µM. For the same compound, the TGI (CCRF-CEM leukemia) was 50 µM, the GI50 (M14 melanoma) was 0.69 µM and the TGI (M14 melanoma) was 1.57 µM. For the same compound, the GI50 (NCI-H23 lung) was 0.777 µM, the TGI (NCI-H23 lung) was 2.86 µM and the GI50 (HT29 colon) was 0.444 µM. The TGI (HT29 colon) was 2.28 µM, the GI50 (A498 renal) was 2.72 µM and the TGI (A498 renal) was 10.6 µM. It also gave a GI50 (TK-10 renal) of 1.29 µM, a TGI (TK-10 renal) of 2.65 µM and a GI50 (SNB-75 CNS) of 0.593 µM. The TGI (SNB-75 CNS) was 3.18 µM, the GI50 (MALME-3M melanoma) was 0.496 µM and the TGI (MALME-3M melanoma) was 1.52 µM. For the same compound, the GI50 (MOLT-4 leukemia) was 0.369 µM, the TGI (MOLT-4 leukemia) was 5.81 µM and the GI50 (SW-620 colon) was 0.356 µM. The TGI (SW-620 colon) was 3.11 µM, the GI50 (SNB-19 CNS) was 1.68 µM and the TGI (SNB-19 CNS) was 15.3 µM. The GI50 (RXF 393 renal) was 0.842 µM, the TGI (RXF 393 renal) was 1.78 µM and the GI50 (UACC-257 melanoma) was 1.07 µM. The TGI (UACC-257 melanoma) was 3.34 µM, the GI50 (RPMI-8226 leukemia) was 1.49 µM and the TGI (RPMI-8226 leukemia) was 5.09 µM. It also gave a GI50 (T-47D breast) of 2.57 µM, a TGI (T-47D breast) of 23.9 µM and a GI50 (OVCAR-8 ovarian) of 1.29 µM. It also gave a TGI (OVCAR-8 ovarian) of 5.39 µM, a GI50 (A549 NSCLC) of 1.62 µM and a TGI (A549 NSCLC) of 5.89 µM. It also gave a GI50 (LOX IMVI melanoma) of 0.51 µM, a TGI (LOX IMVI melanoma) of 1.28 µM and a GI50 (HS 578T breast) of 0.804 µM. For the same compound, the TGI (HS 578T breast) was 5.3 µM, the GI50 (NCI-H522 lung) was 0.234 µM and the TGI (NCI-H522 lung) was 1.27 µM. It also gave a GI50 (HCT-15 colon) of 1.99 µM, a TGI (HCT-15 colon) of 12.2 µM and a GI50 (HCC-2998 colon) of 1.18 µM. It also gave a TGI (HCC-2998 colon) of 5.65 µM, a GI50 (SN12C renal) of 0.85 µM and a TGI (SN12C renal) of 4.48 µM. For the same compound, the GI50 (NCI/ADR-RES ovarian) was 25.6 µM, the TGI (NCI/ADR-RES ovarian) was 50 µM and the GI50 (OVCAR-5 ovarian) was 1.41 µM. For the same compound, the TGI (OVCAR-5 ovarian) was 9.4 µM, the GI50 (IGROV1 ovarian) was 1.07 µM and the TGI (IGROV1 ovarian) was 4.64 µM. It also gave a GI50 (HOP-92 NSCLC) of 0.138 µM, a TGI (HOP-92 NSCLC) of 0.538 µM and a GI50 (EKVX NSCLC) of 2.63 µM. It also gave a TGI (EKVX NSCLC) of 13.3 µM, a GI50 (PC-3 prostate) of 1.33 µM and a TGI (PC-3 prostate) of 10.8 µM. For the same compound, the GI50 (KM12 colon) was 0.00816 µM, the TGI (KM12 colon) was 1.07 µM and the GI50 (NCI-H460 lung) was 0.526 µM. It also gave a TGI (NCI-H460 lung) of 3.29 µM, a GI50 (CAKI-1 renal) of 1.57 µM and a TGI (CAKI-1 renal) of 5.83 µM. The GI50 (HL-60(TB) leukemia) was 0.306 µM, the TGI (HL-60(TB) leukemia) was 1.55 µM and the GI50 (SF-539 CNS) was 0.288 µM. It also gave a TGI (SF-539 CNS) of 3.26 µM, a GI50 (MCF7 breast) of 0.284 µM and a TGI (MCF7 breast) of 2.37 µM. For the same compound, the GI50 (K-562 leukemia) was 0.005 µM, the TGI (K-562 leukemia) was 18.1 µM and the GI50 (UACC-62 melanoma) was 1.36 µM. It also gave a TGI (UACC-62 melanoma) of 5.05 µM, a GI50 (SR leukemia) of 0.264 µM and a TGI (SR leukemia) of 2.24 µM. It also gave a GI50 (HOP-62 NSCLC) of 1.02 µM, a TGI (HOP-62 NSCLC) of 3.71 µM and a GI50 (MDA-MB-231 breast) of 0.352 µM. For the same compound, the TGI (MDA-MB-231 breast) was 2.61 µM, the GI50 (SK-OV-3 ovarian) was 2.54 µM and the TGI (SK-OV-3 ovarian) was 25.7 µM. For the same compound, the GI50 (ACHN renal) was 2.44 µM, the TGI (ACHN renal) was 8.15 µM and the GI50 (HCT-116 colon) was 0.233 µM. It also gave a TGI (HCT-116 colon) of 2.89 µM, a GI50 (SF-268 CNS) of 0.867 µM and a TGI (SF-268 CNS) of 3.46 µM. It also gave a GI50 (SK-MEL-2 melanoma) of 0.591 µM, a TGI (SK-MEL-2 melanoma) of 1.94 µM and a GI50 (OVCAR-3 ovarian) of 1.67 µM. The TGI (OVCAR-3 ovarian) was 12.6 µM, the GI50 (786-0 renal) was 2.08 µM and the TGI (786-0 renal) was 6.22 µM. The GI50 (SF-295 CNS) was 2.85 µM, the TGI (SF-295 CNS) was 10.9 µM and the GI50 (U251 CNS) was 1.3 µM. For the same compound, the TGI (U251 CNS) was 6.98 µM, the GI50 (COLO 205 colon) was 0.348 µM and the TGI (COLO 205 colon) was 1.35 µM. It also gave a GI50 (SK-MEL-28 melanoma) of 0.954 µM, a TGI (SK-MEL-28 melanoma) of 2.18 µM and a GI50 (OVCAR-4 ovarian) of 1.58 µM. It also gave a TGI (OVCAR-4 ovarian) of 16.8 µM, a GI50 (MDA-MB-435) of 0.674 µM and a TGI (MDA-MB-435) of 5.78 µM. The GI50 (NCI-H226 lung) was 0.214 µM and the TGI (NCI-H226 lung) was 6.12 µM.
